Data from ChEMBL document CHEMBL3045940, “In vivo peritoneal antiangiogenesis and in vitro antiproliferative properties of some bischalcone derivatives” (Med Chem Res, 2012).
The source made the active and inactive calls. The calls are words filed in the database; no cut-off is given here.

Assays:
[1] = system: HeLa; assay: Antiproliferative activity against Homo sapiens (human) HeLa cells after 48 hr by MTT assay; format: functional, cell-based
[2] = system: EAT; assay: Antitumor activity against Mus musculus (mouse) EAT cells xenografted in Mus musculus Swiss albino (mouse) assessed as decrease in cell viability drug administered on day 7,9 and 11 after tumor transplantation; format: functional, cell-based
[3] = Antitumor activity against Mus musculus (mouse) EAT cells xenografted in Mus musculus Swiss albino (mouse) assessed as reduction in ascites volume drug administered on day 7,9 and 11 after tumor transplantation […]; format: functional
[4] = system: Mus musculus; assay: Antiangiogenic activity in EAT cells xenografted in Mus musculus Swiss albino (mouse) assessed as reduction in vasculaization in peritoneal cavity drug administered on day 7,9 and 11 after tumor transplantation; format: functional, organism-based
[5] = system: EAT; assay: Induction of apoptosis in Mus musculus (mouse) EAT cells xenografted in Mus musculus Swiss albino (mouse) assessed as appearance of condensed nuclei, membrane blebbing and formation of apoptotic bodies drug administered on day 7,9 and 11 after tumor transplantation by Giemsa, ethidium bromide/acridine orange staining analysis; format: functional, cell-based
[6] = system: EAT; assay: Induction of apoptosis in Mus musculus (mouse) EAT cells xenografted in Mus musculus Swiss albino (mouse) assessed as DNA fragmentation drug administered on day 7,9 and 11 after tumor transplantation by agarose gel electrophoresis; format: functional, cell-based
[7] = system: HepG2; assay: Antiproliferative activity against Homo sapiens (human) HepG2 cells after 48 hr by MTT assay; format: functional, cell-based; conditions: HepG2, 48 h
[8] = system: EAT; assay: Antitumor activity against Mus musculus (mouse) EAT cells xenografted in Mus musculus Swiss albino (mouse) assessed as decrease in tumor burden measured as reduction in body weight drug administered on day 7,9 and 11 after tumor transplantation; format: functional, cell-based
[9] = system: HepG2; assay: Induction of apoptosis in Homo sapiens (human) HepG2 cells assessed as DNA fragmentation at 10 uM after 24 hr by agarose gel electrophoresis; format: functional, cell-based

Row | IC50 [1] [µM] | IC50 [7] [µM] | SMILES | inhibition [2] | inhibition (INH) [3] [%] | inhibition [4] | Activity [5] | Activity [6] | inhibition [8] | Activity [9]
1 | 110 | 106 | COc1ccc(/C=C2\CC/C(=C\c3ccc(OC)c(OC)c3)C2=O)cc1OC | Active | 70 | Active | Active | Active | Active | Active
2 | 39 | 48 | O=C1/C(=C/c2ccc(F)cc2)CC/C1=C\c1ccc(F)cc1 | Active | 70 | Active | Active | Active | Active | Active
3 | 42 | 44 | COc1cc(/C=C2\CC/C(=C\c3ccc(O)c(OC)c3)C2=O)ccc1O | Active | 70 | Active | Active | Active | Active | Active
